The results in this text go back to patent publication US8987195B2 (priority 2012, dated 2015).

Where two headings read alike, the source gives them in different places.

Test [1] concerns the target HCV NS3/4A protease genotype 1b (Hepatitis C virus genotype 1b, UniProt P26663). Kind of test: HCV NS3/4A protease time-resolved fluorescence (TRF) assay, Ki against genotype 1b. The note with it: IC50 [gt-1b], NS3/4A protease TRF assay, genotype 1b enzyme 0.2 nM. The class given is biochemical. The essentials:
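First, protease (genotype 1b 0.2 nM, A156T 0.4 nM, genotype 3a 0.025 nM) is preincubated 30 min with inhibitor. Next, 25 nM TRF substrate starts the reaction, run 2.5 h at room temperature. Finally, europium fluorescence is read and Ki calculated from IC50.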

The next test has as its system HCV genotype 1b replicon. The experiment in a line: HCV replicon assay, genotype 1b replicon EC50. In kind it is cell-based, Hepatitis C virus. The following applies: Hepatitis C virus, HCV replicon, genotype 1b, read-out: EC50 [gt-1b]. The procedure, abridged: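 Replicon cells (Neo^r, some luciferase:Neo^r fusion); G418 removed at plating; compound dilution series, 24-48 h. Readout: RNA by 32P-probe hybridization/protection or TaqMan, normalized to cyclophilin A RNA, or luciferase. EC50 vs DMSO control, 4-parameter fit.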

A word on the IC50: it is the concentration that gives 50% inhibition. As a reminder, the EC50 is the concentration needed to bring the measured effect to its halfway point. As to `COc1cccc(N[C@H]2CCCCC/C=C\[C@@H]3C[C@@]3(C(=O)NS(=O)(=O)C3(C)CC3)NC(=O)[C@@H]3C[C@]4(CCc5c(c(C)nc6ccccc56)O4)CN3C2=O)n1` [Example 415, (2R,6S,12Z,13aS,14aR,16aS)-6-[(6-methoxypyridin-2-yl)amino]-5′-methyl-N-[(1-methylcyclopropyl)sulfonyl]-5,16-dioxo-1,1′,2′,6,7,8,9,10,11,13a,14,15,16,16a-tetradecahydrospiro[cyclopropa[e]pyrrolo[1,2-a][1,4]diazacyclopentadecine-2,3′-pyrano[2,3-c]quinoline]-14a(5H)-carboxamide], in test [1], half-maximal inhibition (IC50) required 0.118 nM. Also, the EC50 with HCV genotype 1b replicon is 16.3 nM.
Regarding `Cc1ccc2nc(C(F)(F)F)c3c(c2c1)CC[C@]1(C[C@H]2C(=O)N[C@]4(C(=O)NS(=O)(=O)C5(C)CC5)C[C@H]4/C=C\CCCCC[C@H](NC(=O)OCCN4CCCC4)C(=O)N2C1)O3` [Example 416, 2-(pyrrolidin-1-yl)ethyl [(2R,6S,12Z,13aS,14aR,16aS)-9′-methyl-14a-{[(1-methylcyclopropyl)sulfonyl]carbamoyl}-5,16-dioxo-5′-(trifluoromethyl)-1,1′,2′,5,6,7,8,9,10,11,13a,14,14a,15,16,16a-hexadecahydrospiro[cyclopropa[e]pyrrolo[1,2-a][1,4]diazacyclopentadecine-2,3′-pyrano[2,3-c]quinolin]-6-yl]carbamate], the IC50 in test [1] stood at 0.164 nM. Besides, the EC50 in the test on HCV genotype 1b replicon came out at 272 nM.
In the same order, the values of `Cc1ccc2nc(C(F)(F)F)c3c(c2c1)CC[C@]1(C[C@H]2C(=O)N[C@]4(C(=O)NS(=O)(=O)C5(C)CC5)C[C@H]4/C=C\CCCCC[C@H](NC(=O)OCCN4CCCCC4)C(=O)N2C1)O3` [Example 417, 2-(piperidin-1-yl)ethyl [(2R,6S,12Z,13aS,14aR,16aS)-9′-methyl-14a-{[(1-methylcyclopropyl)sulfonyl]carbamoyl}-5,16-dioxo-5′-(trifluoromethyl)-1,1′,2′,5,6,7,8,9,10,11,13a,14,14a,15,16,16a-hexadecahydrospiro[cyclopropa[e]pyrrolo[1,2-a][1,4]diazacyclopentadecine-2,3′-pyrano[2,3-c]quinolin]-6-yl]carbamate] are 0.094 nM and 45.3 nM.
`Cc1nc2ccc(OCCN3CCOCC3)cc2c2c1O[C@]1(CC2)C[C@H]2C(=O)N[C@]3(C(=O)NS(=O)(=O)C4(C)CC4)C[C@H]3/C=C\CCCCC[C@H](NC(=O)OC(C)(C)C)C(=O)N2C1` [Example 418, tert-butyl {(2R,6S,12Z,13aS,14aR,16aS)-5′-methyl-14a-{[(1-methylcyclopropyl)sulfonyl]carbamoyl}-9′-[2-(morpholin-4-yl)ethoxy]-5,16-dioxo-1,1′,2′,5,6,7,8,9,10,11,13a,14,14a,15,16,16a-hexadecahydrospiro[cyclopropa[e]pyrrolo[1,2-a][1,4]diazacyclopentadecine-2,3′-pyrano[2,3-c]quinolin]-6-yl}carbamate] had an IC50 in test [1] of 0.008 nM. Besides, the concentration for a half-maximal effect (EC50) in the test with HCV genotype 1b replicon came to 6.24 nM.
Consider `COc1ccc2nc(C(C)C)c3c(c2c1)[C@H](F)C[C@]1(C[C@H]2C(=O)N[C@]4(C(=O)NS(=O)(=O)C5(C)CC5)C[C@H]4/C=C\CCCCC[C@H](NC(=O)O[C@@H](C)C(C)C)C(=O)N2C1)O3` [Example 419, (2S)-3-methylbutan-2-yl [(1′R,2S,6S,12Z,13aS,14aR,16aS)-1′-fluoro-9′-methoxy-14a-{[(1-methylcyclopropyl)sulfonyl]carbamoyl}-5,16-dioxo-5′-(propan-2-yl)-1,1′,2′,5,6,7,8,9,10,11,13a,14,14a,15,16,16a-hexadecahydrospiro[cyclopropa[e]pyrrolo[1,2-a][1,4]diazacyclopentadecine-2,3′-pyrano[2,3-c]quinolin]-6-yl]carbamate], for which, in test [1] (K+ salt), the IC50 amounted to 0.038 nM. Also, the EC50 in the test with HCV genotype 1b replicon (K+ salt) turned out to be 1.75 nM.
Consider `CC[C@@H](C)OC(=O)N[C@H]1CCCCC/C=C\[C@@H]2C[C@@]2(C(=O)NS(=O)(=O)C2(C)CC2)NC(=O)[C@@H]2C[C@]3(CCc4c(c(C5CC5)nc5ccc(OC)cc45)O3)CN2C1=O` [Example 420, (2R)-butan-2-yl [(2R,6S,12Z,13aS,14aR,16aS)-5′-cyclopropyl-9′-methoxy-14a-{[(1-methylcyclopropyl)sulfonyl]carbamoyl}-5,16-dioxo-1,1′,2′,5,6,7,8,9,10,11,13a,14,14a,15,16,16a-hexadecahydrospiro[cyclopropa[e]pyrrolo[1,2-a][1,4]diazacyclopentadecine-2,3′-pyrano[2,3-c]quinolin]-6-yl]carbamate], for which the IC50 in test [1] (K+ salt) amounted to 0.011 nM. For the same compound, the EC50 with HCV genotype 1b replicon (K+ salt) came out at 1.25 nM.
In turn, `CC[C@H](C)OC(=O)N[C@H]1CCCCC/C=C\[C@@H]2C[C@@]2(C(=O)NS(=O)(=O)C2(C)CC2)NC(=O)[C@@H]2C[C@]3(CCc4c(c(C5CC5)nc5ccc(OC)cc45)O3)CN2C1=O` [Example 421, (2S)-butan-2-yl [(2R,6S,12Z,13aS,14aR,16aS)-5′-cyclopropyl-9′-methoxy-14a-{[(1-methylcyclopropyl)sulfonyl]carbamoyl}-5,16-dioxo-1,1′,2′,5,6,7,8,9,10,11,13a,14,14a,15,16,16a-hexadecahydrospiro[cyclopropa[e]pyrrolo[1,2-a][1,4]diazacyclopentadecine-2,3′-pyrano[2,3-c]quinolin]-6-yl]carbamate] displayed an IC50 in test [1] of 0.024 nM. Also, the EC50 in the test with HCV genotype 1b replicon worked out at 1.72 nM.
Take `COc1ccc2nc(C(F)(F)F)c3c(c2c1)CC[C@]1(C[C@H]2C(=O)N[C@]4(C(=O)NS(=O)(=O)C5(C)CC5)C[C@H]4/C=C\CCCCC[C@H](NC(=O)OC4(C)COC4)C(=O)N2C1)O3` [Example 422, 3-methyloxetan-3-yl [(2R,6S,12Z,13aS,14aR,16aS)-9′-methoxy-14a-{[(1-methylcyclopropyl)sulfonyl]carbamoyl}-5,16-dioxo-5′-(trifluoromethyl)-1,1′,2′,5,6,7,8,9,10,11,13a,14,14a,15,16,16a-hexadecahydrospiro[cyclopropa[e]pyrrolo[1,2-a][1,4]diazacyclopentadecine-2,3′-pyrano[2,3-c]quinolin]-6-yl]carbamate]: the IC50 in test [1] (K+ salt) was found to be 0.008 nM. For the same compound, the EC50 in the test on HCV genotype 1b replicon (K+ salt) worked out at 3.14 nM.
Compound `Cc1ccc2nc(C(F)(F)F)c3c(c2c1)CC[C@]1(C[C@H]2C(=O)N[C@]4(C(=O)NS(=O)(=O)C5(C)CC5)C[C@H]4/C=C\CCCCC[C@H](NC(=O)OCCCN4CCCCC4)C(=O)N2C1)O3` [Example 423, 3-(piperidin-1-yl)propyl [(2R,6S,12Z,13aS,14aR,16aS)-9′-methyl-14a-{[(1-methylcyclopropyl)sulfonyl]carbamoyl}-5,16-dioxo-5′-(trifluoromethyl)-1,1′,2′,5,6,7,8,9,10,11,13a,14,14a,15,16,16a-hexadecahydrospiro[cyclopropa[e]pyrrolo[1,2-a][1,4]diazacyclopentadecine-2,3′-pyrano[2,3-c]quinolin]-6-yl]carbamate] displayed an IC50 in test [1] of 0.048 nM. Besides, the EC50 in the test with HCV genotype 1b replicon turned out to be 19 nM.
For the compound `Cc1ccc2nc(C(F)(F)F)c3c(c2c1)CC[C@]1(C[C@H]2C(=O)N[C@]4(C(=O)NS(=O)(=O)C5(C)CC5)C[C@H]4/C=C\CCCCC[C@H](NC(=O)OCCCN4CCOCC4)C(=O)N2C1)O3` [Example 424, 3-(morpholin-4-yl)propyl [(2R,6S,12Z,13aS,14aR,16aS)-9′-methyl-14a-{[(1-methylcyclopropyl)sulfonyl]carbamoyl}-5,16-dioxo-5′-(trifluoromethyl)-1,1′,2′,5,6,7,8,9,10,11,13a,14,14a,15,16,16a-hexadecahydrospiro[cyclopropa[e]pyrrolo[1,2-a][1,4]diazacyclopentadecine-2,3′-pyrano[2,3-c]quinolin]-6-yl]carbamate], the IC50 in test [1] came out at 0.033 nM. For the same compound, in the test with HCV genotype 1b replicon, the concentration giving a half-maximal response (EC50) came to 15.1 nM.
